The values below come from US7592329B2, “Crystalline complexes of fluticasone-2-furoate” (Glaxo Group Limited, priority 2003, dated 2009).

“Also recorded” adds a separate entry of the source.

The test system of one data set is human hepatocytes. In words: In vitro metabolism in human hepatocytes. The data set is classed as in vitro ADME. The note with it: 17-β carboxylic acid (X) the only significant metabolite.
Data set [1] is described as follows: Pharmacokinetics after intravenous (IV) and oral dosing in rats. Particulars: rat. The data set is classed as in vivo, male Wistar Han rats.
The next data set relates to thymus involution. In words: Rat model of thymus involution. The data set is classed as in vivo. Particulars: 3 daily IT doses of 100 μg.
Data set [2] can be described thus: Lung absorption (mean absorption time) in man. It counts as in vivo. Particulars: average; for time taken for 90% of lung dose to be absorbed: mathematical deconvolution of plasma concentration time data.
A further data set relates to rat hepatocytes. In words: In vitro metabolism in rat hepatocytes. It counts as in vitro ADME. The note with it: 17-β carboxylic acid (X) the only significant metabolite.
The nature of data set [3]: Pharmacokinetics after intravenous administration in the anaesthetised pig. The data set is classed as in vivo. The note with it: IV mixture of the two compounds at 0.1 mg/kg. The source says:
The clearance of these two glucocorticoids is similar is this experimental pig model.

Data set [4] in a line: Pharmacokinetics after intra-tracheal dry powder dosing in the pig. The note with it: for time after dosing up to which quantifiable in plasma: anaesthetised pigs, 1 mg intra-tracheal, LLOQ 10 pg/mL compound (I), 20 pg/mL fluticasone propionate. It counts as in vivo. How it is done:
Serial blood samples were taken for up to 8 h following dosing.

The test system of data set [5] is human bronchial epithelial cells. Nature of the data set: Cell transport and accumulation studies using human bronchial epithelial cells. It counts as in vitro ADME.
The next data set has as its system human lung tissue. In words: In vitro human lung tissue affinity experiments. It counts as in vitro ADME.
The next data set has as its target T1, glucocorticoid receptor (Homo sapiens, UniProt P04150).
T1 sequence (P04150 1-777): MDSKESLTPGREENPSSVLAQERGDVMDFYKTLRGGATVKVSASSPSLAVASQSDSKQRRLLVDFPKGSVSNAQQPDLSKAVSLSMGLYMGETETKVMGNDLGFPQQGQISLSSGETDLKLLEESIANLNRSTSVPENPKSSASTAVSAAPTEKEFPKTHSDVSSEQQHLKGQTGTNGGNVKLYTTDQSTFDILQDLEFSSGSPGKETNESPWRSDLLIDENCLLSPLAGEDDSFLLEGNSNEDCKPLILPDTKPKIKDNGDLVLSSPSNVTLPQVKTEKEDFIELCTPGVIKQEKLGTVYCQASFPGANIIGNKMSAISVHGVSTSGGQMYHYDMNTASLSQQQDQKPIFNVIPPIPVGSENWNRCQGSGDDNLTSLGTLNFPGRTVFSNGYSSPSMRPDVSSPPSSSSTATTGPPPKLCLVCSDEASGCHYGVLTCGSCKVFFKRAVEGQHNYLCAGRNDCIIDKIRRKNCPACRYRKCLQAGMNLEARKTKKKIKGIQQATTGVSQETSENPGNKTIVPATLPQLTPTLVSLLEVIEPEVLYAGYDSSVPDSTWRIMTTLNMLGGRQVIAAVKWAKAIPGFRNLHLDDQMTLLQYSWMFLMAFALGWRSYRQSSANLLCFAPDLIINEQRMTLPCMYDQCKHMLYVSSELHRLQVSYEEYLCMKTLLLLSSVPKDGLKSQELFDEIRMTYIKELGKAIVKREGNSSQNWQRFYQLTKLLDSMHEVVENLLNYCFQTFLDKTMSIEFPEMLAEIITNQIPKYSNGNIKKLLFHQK
Nature of the data set: In vitro functional glucocorticoid assays, metabolite versus parent. The data set is classed as cell-based. The method, then:
Compound (I) undergoes highly efficient hepatic metabolism to yield the 17-β carboxylic acid (X) as the sole major metabolite in rat and human in vitro systems.
Pharmacological activity was assessed in a functional in vitro assay of glucocorticoid agonist activity which is generally predictive of anti-inflammatory or anti-allergic activity in vivo.
The functional assay was based on that described by K. P. Ray et al., Biochem J. (1997), 328, 707-715. A549 cells stably transfected with a reporter gene containing the NF-κB responsive elements from the ELAM gene promoter coupled to sPAP (secreted alkaline phosphatase) were treated with test compounds at appropriate doses for 1 hour at 37° C. The cells were then stimulated with tumour necrosis factor (TNF, 10 ng/ml) for 16 hours, at which time the amount of alkaline phosphatase produced is measured by a standard colourimetric assay. […]
In a variant of the above method, to monitor these functions, two reporter plasmids have been generated and introduced separately into A549 human lung epithelial cells by transfection. […] After incubation for 1 h 0.5 ng/ml TNFα (R&D Systems) was added and after a further 15 hours at 37° C., the levels of firefly and renilla luciferase were measured using the Packard Firelite kit following the manufacturers' directions. Dose response curves were constructed from which EC50 values were determined.

The target of data set [6] is glucocorticoid receptor (GR) (Homo sapiens, UniProt P04150). Nature of the data set: Transactivation (GR) renilla luciferase reporter assay in A549 cells. It counts as cell-based. The note with it: GRE renilla luciferase reporter, read-out: Transactivation (GR) ED50. From the text: The glucocorticoid receptor (GR) can function in at least two distinct mechanisms, by upregulating gene expression through the direct binding of GR to specific sequences in gene promotors, and by downregulating gene expression that is being driven by other transcription factors (such as NFκB or AP-1) through their direct interaction with GR.
The first cell line contains the firefly luciferase reporter gene under the control of a synthetic promoter that specifically responds to activation of the transcription factor NFκB when stimulated with TNFα. The second cell line contains the renilla luciferase reporter gene under the control of a synthetic promotor that comprises 3 copies of the consensus glucocorticoid response element, and which responds to direct stimulation by glucocorticoids. Simultaneous measurement of transactivation and transrepression was conducted by mixing the two cell lines in a 1:1 ratio in 96 well plate (40,000 cells per well) and growing overnight at 37° C. Test compounds were dissolved in DMSO, and added to the cells at a final DMSO concentration of 0.7%. After incubation for 1 h 0.5 ng/ml TNFα (R&D Systems) was added and after a further 15 hours at 37° C., the levels of firefly and renilla luciferase were measured using the Packard Firelite kit following the manufacturers' directions. Dose response curves were constructed from which EC50 values were determined.

What is called bioavailability is the share of a dose that reaches the circulation, judged against a reference dose that is usually intravenous. Consider `C[C@@H]1CC2C3C[C@H](F)C4=CC(=O)C=C[C@]4(C)[C@@]3(F)[C@@H](O)C[C@]2(C)[C@@]1(OC(=O)c1ccco1)C(=O)SCF` (stereo partly drawn) [Compound of Formula (I), 6α,9α-Difluoro-17α-[(2-furanylcarbonyl)oxy]-11β-hydroxy-16α-methyl-3-oxo-androsta-1,4-diene-17β-carbothioic acid S-fluoromethyl ester], for which the manner of metabolism result in the data set on human hepatocytes is recorded as “metabolised in an identical manner to fluticasone propionate”. In data set [1] (male, Wistar Han, plasma, oral, 0.1 mg/kg, oral 0.1 mg/kg vs IV 0.1 mg/kg), this compound displayed a bioavailability of 0.9%. The “plasma clearance (in words)” value in data set [1] (in vivo) is recorded as “approaching hepatic blood flow”. Further, the “reduction of thymus weight” value in the data set on thymus involution is 67%. Moreover, in data set [2], the “mean absorption time (MAT)” value amounted to 12 h and the “time taken for 90% of lung dose to be absorbed” value worked out at 21 h. For the same compound, in the data set on rat hepatocytes, the manner of metabolism entry is recorded as “metabolised in an identical manner to fluticasone propionate”. Moreover, in data set [3], the “clearance compared with fluticasone propionate” value is given as “similar”. Further, the “time after dosing up to which quantifiable in plasma” value in [4] is reported as “up to 2 hours”. Moreover, in [4] (dry powder delivery to the lungs of anaesthetised pigs), the “systemic exposure compared with fluticasone propionate” value was “markedly reduced systemic exposure; also recorded: significantly lower exposure”. In data set [5], the “accumulation within the cell layer compared with fluticasone propionate” value was “greater accumulation” and the “flux across the cell layer compared with fluticasone propionate” value is on record as “reduced flux”. Also, the “affinity for human lung tissue” value in the data set with human lung tissue is “significantly higher affinity”.
For `CCC(=O)O[C@]1(C(=O)SCF)[C@H](C)C[C@H]2[C@@H]3C[C@H](F)C4=CC(=O)C=C[C@]4(C)[C@@]3(F)[C@@H](O)C[C@@]21C` [Fluticasone propionate, 6α,9α-Difluoro-17α-(1-oxopropoxy)-11β-hydroxy-16α-methyl-3-oxo-androsta-1,4-diene-17β-carbothioic acid S-fluoromethyl ester, reference compound], in the data set with thymus involution, the “reduction of thymus weight” value stood at 78%. Besides, in [2], the “mean absorption time (MAT)” value came out at 2.1 h and the “time taken for 90% of lung dose to be absorbed” value was 11 h. The “time after dosing up to which quantifiable in plasma” value in data set [4] is on record as “up to 8 hours”.
Consider `C[C@@H]1CC2C3C[C@H](F)C4=CC(=O)C=C[C@]4(C)[C@@]3(F)[C@@H](O)C[C@]2(C)[C@@]1(OC(=O)c1ccco1)C(=O)O` (stereo partly shown) [Metabolite (X)], for which the “fold less active than the parent compound” value at glucocorticoid receptor is on record as more than 1000 fold. Further, the EC50 in data set [6] is more than 250 nM.
